Source: US20080293775A1, “Substituted Diphenylethers, -Amines, -Sulfides and -Methanes for the Treatment of Respiratory Disease” (ASTRAZENECA AB, priority 2005, published 2008)

Each molecule was assayed against T1, rhCRTh2 (Homo sapiens, UniProt Q9Y5Y4) (assay: Ligand binding assay ([3H]PGD2, SPA beads, HEK cell membranes)). Conditions: [3H]PGD2 binding to membranes of HEK cells expressing rhCRTh2/Gα16, SPA, 2 hours at RT; read-out: pIC50 value (converted).
T1 construct: expressed in transfected cells; host or cells: HEK cells (membrane preparation)
T1 sequence (Q9Y5Y4 1-395): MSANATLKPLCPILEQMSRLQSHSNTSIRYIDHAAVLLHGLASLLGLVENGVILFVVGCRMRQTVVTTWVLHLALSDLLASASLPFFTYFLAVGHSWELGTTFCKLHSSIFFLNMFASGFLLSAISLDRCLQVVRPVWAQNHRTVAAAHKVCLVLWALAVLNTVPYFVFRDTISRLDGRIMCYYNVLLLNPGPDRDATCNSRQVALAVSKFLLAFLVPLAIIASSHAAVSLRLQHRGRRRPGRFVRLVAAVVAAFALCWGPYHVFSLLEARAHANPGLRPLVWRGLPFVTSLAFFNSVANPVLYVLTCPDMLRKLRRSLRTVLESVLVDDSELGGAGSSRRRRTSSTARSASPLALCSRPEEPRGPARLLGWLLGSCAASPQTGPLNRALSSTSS
Description: [^3H]PGD2 was purchased from Perkin Elmer Life Sciences with a specific activity of 100-210 Ci/mmol. All other chemicals were of analytical grade.
HEK cells expressing rhCRTh2/Gα16 were routinely maintained in DMEM containing 10% Foetal Bovine Serum (HyClone), 1 mg/ml geneticin, 2 mM L-glutamine and 1% non-essential amino acids. For the preparation of membranes, the adherent transfected HEK cells were grown to confluence in two layer tissue culture factories (Fisher, catalogue number TKT-170-070E). Maximal levels of receptor expression were induced by addition of […] sodium butyrate for the last 18 hours of culture. The adherent cells were washed once with phosphate buffered saline (PBS, 50 ml per cell factory) and detached by the addition of 50 ml per cell factory of ice-cold membrane homogenisation buffer [20 mM HEPES (pH 7.4), 0.1 mM dithiothreitol, 1 mM EDTA, 0.1M phenyl methyl sulphonyl fluoride and 100 μg/ml bacitracin]. Cells were pelleted by centrifugation at 220×g for 10 minutes at 4° C., re-suspended in half the original volume of fresh membrane homogenisation buffer and disrupted using a Polytron homogeniser for 2×20 second bursts keeping the tube in ice at all times. […] The final pellet was re-suspended in 4 ml of membrane homogenisation buffer per cell factory used and the protein content determined. […]
All assays were performed in Corning clear bottomed, white 96-well NBS plates (Fisher). […] (The optimum coating concentrations were determined for each batch of membranes) The beads were pelleted by centrifugation (800×g for 7 minutes at 4° C.), washed once with assay buffer (50 mM HEPES pH 7.4 containing 5 mM magnesium chloride) and finally re-suspended in assay buffer at a bead concentration of 10 mg/ml. […]
Compounds and DK-PGD2 were dissolved in DMSO and diluted in the same solvent to 100× the required final concentration. […] The assay plate was incubated at RT for 2 hours and counted on a Wallac Microbeta liquid scintillation counter (1 minute per well).

| Structure (SMILES) | IC50 |
| --- | --- |
| CS(=O)(=O)c1ccc(Sc2cc(Cl)ccc2OCc2nnn[nH]2)c(Cl)c1 [Example 4] | 158 nM |
| CC(=O)NS(=O)(=O)Cc1ccc(Cl)cc1Oc1ccc(S(C)(=O)=O)cc1Cl [Example 6, N-({4-chloro-2-[2-chloro-4-(methylsulfonyl)phenoxy]benzyl}sulfonyl)acetamide] | 158 nM |
| CS(=O)(=O)NC(=O)Cc1ccc(Cl)c(Oc2ccc(S(C)(=O)=O)cc2Cl)c1 [Example 9, 2-{4-chloro-3-[2-chloro-4-(methylsulfonyl)phenoxy]phenyl}-N-(methylsulfonyl)acetamide] | 141 nM |
